These results are taken from PubChem BioAssay (NCI).

Holding throughout (assay): NCI tumour cell line growth inhibition, 48 h
Assay [1] deals with HCT-15 colon.
In assay [2] the test system is HOP-62 NSCLC.
In assay [3] the test system is K-562 leukemia.
In assay [4] the test system is MDA-MB-231 breast.
The subject of assay [5] is OVCAR-3 ovarian.
For assay [6], the system named is OVCAR-5 ovarian.
For assay [7], the system named is RXF 393 renal.
For assay [8], the system named is SK-MEL-5 melanoma.
The test system of assay [9] is U251 CNS.
The subject of assay [10] is UACC-257 melanoma.

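Where inhibition never reached the appropriate level, the endpoint shown equals the highest concentration tested. Otherwise, values were interpolated linearly from a five-concentration, 48-hour dose response in 96-well plates. GI50 is the concentration that inhibits growth by half. TGI is the concentration that stops growth completely.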

In the case of `CC(C)(C)OC(=O)CN1CCc2c(sc3ncnc(N/N=C/c4cccc5ccccc45)c23)C1`, the GI50 in assay [1] is 2200 nM; in assay [2] it was 2310 nM; in [3] it was 1080 nM; in assay [4] it was 2640 nM; in [5], 1000 nM; in [6], 3340 nM. The GI50 in assay [7] was 1560 nM; in assay [8], 4080 nM; in [9] it was 3180 nM; in assay [10], 4.59 µM. The TGI in assay [1] is 9.57 µM; in [2], 11.4 µM; in [3], more than 33.3 µM; in assay [4], 9.21 µM; in assay [5], 3.92 µM; in assay [6], 8.41 µM. Also, the TGI worked out at 6.93 µM in [7], 8.28 µM in assay [8], 14.6 µM in assay [9] and 21.7 µM in [10].

`O=c1c2ccccc2nc(-c2ccccc2)n1O`: the TGI in [1] was more than 100 µM; in [2] it was 37.4 µM; in assay [3], more than 100 µM; in assay [4], more than 100 µM; in assay [5] it was more than 100 µM; in [6], more than 100 µM. The TGI in assay [7], in assay [8], in assay [9] and in assay [10] was more than 100 µM each time.

Regarding `COc1ccc(/C=C/C(=O)c2cc3c(N)c(C(=O)Nc4ccccc4C)sc3nc2C)cc1`, the GI50 was 520 nM in [1]; 779 nM in [2]; 267 nM in assay [3]; 1180 nM in assay [4]; 168 nM in assay [5]; 1390 nM in assay [6]. Moreover, the GI50 was 140 nM in assay [7], 214 nM in [8], 1400 nM in assay [9] and 16.1 µM in assay [10]. The TGI in assay [1] is more than 50 µM; in assay [2] it was more than 50 µM; in assay [3] it was more than 50 µM; in [4] it was more than 38.5 µM; in [5], 0.955 µM; in assay [6] it was more than 50 µM. Also, the TGI was 0.423 µM in [7], 7.58 µM in [8], more than 50 µM in [9] and more than 50 µM in assay [10].

In the case of `O=S(=O)(O)/C(=C\c1ccccc1)c1ccccc1` (tested in a mixture with another compound), the TGI in [1], in assay [2], in assay [3], in assay [4], in assay [5] and in assay [6] was more than 100 µM in each case. Besides, the TGI in [7], in assay [8], in [9] and in assay [10] was more than 100 µM throughout.

With `O=[N+]([O-])c1ccc(/C=C(/c2ccc([N+](=O)[O-])o2)S(=O)(=O)c2ccccc2)o1`, the TGI was found to be 26 µM in assay [1]; 38.3 µM in assay [2]; 10.2 µM in assay [3]; 16.3 µM in [4]; 29 µM in [5]; 33.9 µM in assay [6]. The TGI in assay [7] was more than 100 µM; in [8], 24.4 µM; in assay [9], 29.4 µM; in assay [10], 3.66 µM.

As for `COc1cc2cc(Oc3ccc(NC(=O)Nc4ccc(Cl)c(C(F)(F)F)c4)cc3)c(C)nc2cc1OC`, the GI50 in assay [1] is 1150 nM; in assay [2] it was 1300 nM; in assay [3], 1110 nM; in assay [4] it was 681 nM; in [5] it was 1160 nM; in assay [6] it was 1930 nM. Besides, the GI50 in assay [7] was 1330 nM; in [8], 793 nM; in assay [9], 1030 nM; in [10], 0.71 µM. The TGI was 4.86 µM in assay [1]; 5.32 µM in [2]; 4.81 µM in [3]; 1.84 µM in assay [4]; 4.45 µM in assay [5]; 6.22 µM in assay [6]. Further, the TGI in assay [7] is 4.21 µM; in assay [8], 2.17 µM; in assay [9], 3.78 µM; in assay [10], 2.36 µM.

`Cc1ccc2c(c1)O/C(=C\c1ccc([N+](=O)[O-])o1)C2=O`: the GI50 in [1] was 393 nM; in [2], 2270 nM; in assay [3], 388 nM; in assay [4], 1360 nM; in assay [5], 1530 nM; in [6], 2400 nM. The GI50 in [7] is 1340 nM; in assay [8], 1610 nM; in [9], 1820 nM; in assay [10], 1.54 µM. Besides, the TGI in assay [1] is 1.54 µM; in assay [2], 6.48 µM; in assay [3], 2.04 µM; in [4] it was 3.27 µM; in assay [5], 2.86 µM; in [6], 4.75 µM. Moreover, the TGI in assay [7] worked out at 2.74 µM; in assay [8], 3.04 µM; in [9], 3.98 µM; in [10] it was 3.31 µM.

In the case of `O=C(O)c1cc(Cc2ccc(O)c(C(=O)O)c2)ccc1O` (tested in a mixture with another compound), the GI50 was 3350 nM in [1]; 10900 nM in assay [2]; 2380 nM in [3]; 3250 nM in assay [4]; 9750 nM in [5]; 11500 nM in assay [6]. Moreover, the GI50 in assay [7] was 250 nM; in [8], 4900 nM; in assay [9] it was 9440 nM; in assay [10], 3.34 µM. The TGI in assay [1] is 17 µM; in [2], 26.6 µM; in assay [3], more than 100 µM; in [4] it was 12.2 µM; in [5], 22.3 µM; in assay [6], 27.1 µM. The TGI in assay [7] stood at 1.37 µM; in assay [8], 19.8 µM; in assay [9], 27.7 µM; in assay [10] it was 7.77 µM.
